Experimental findings from ChEMBL document CHEMBL4138295, “Late-Stage Microsomal Oxidation Reduces Drug-Drug Interaction and Identifies Phosphodiesterase 2A Inhibitor PF-06815189” (ACS Med Chem Lett, 2018) are described below.

As a reminder, the Papp is a coefficient for how fast a substance crosses the barrier. By IC50 is commonly meant the midpoint of a concentration-inhibition curve. Usually bioavailability stands for dose-corrected exposure relative to a reference, in per cent. By half-life is commonly meant how long it takes for the measured level to halve. A word on the inhibition: it is the share of the control response that was lost under treatment.

The source made the active and inactive calls. The calls are words filed in the database; no cut-off is given here.

The nature of data set [1]: Apparent permeability in RRCK cells. The class given is ADME, cell-based, Canis lupus familiaris. To be noted: dog, mdckii-le.
For data set [2], the target named is cGMP-dependent 3',5'-cyclic phosphodiesterase (Homo sapiens, UniProt O00408). As to the kind of experiment: Inhibition of human PDE2A1 using 3',5'-[3H]cGMP as substrate measured after 30 mins by Yttrium silicate scintillation proximity assay. (In a scintillation proximity assay essentially only radioactivity close to the scintillant gives light.)
Data set [3] in a line: Drug metabolism in cynomolgus monkey liver microsomes assessed as PF-06815189 formation at 20 uM measured after 50 mins by UHPLC-UV analysis. The format is ADME, Macaca fascicularis, microsome.
A short description of data set [4]: Drug metabolism in cynomolgus monkey liver microsomes assessed as 7-(3-(hydroxymethyl)-1-methyl-5-(4-(trifluoromethyl)phenyl)-1H-pyrazol-4-yl)-2,5-dimethylimidazo[1,5-f][1,2,4]triazin-4(3H)-one formation at 20 uM measured after 50 mins by UHPLC-UV analysis. The format is ADME, Macaca fascicularis, microsome. For orientation: Microsomes from liver hold many membrane-bound enzymes, among them those of drug oxidation.

Data set [5] is described as follows: Drug metabolism in cynomolgus monkey liver microsomes assessed as 5-(hydroxymethyl)-7-(3-(hydroxymethyl)-1-methyl-5-(4-(trifluoromethyl)phenyl)-1H-pyrazol-4-yl)-2-methylimidazo[1,5-f][1,2,4]triazin-4(3H)-one formation at 20 uM measured after 50 mins by UHPLC-UV analysis. The format is ADME, Macaca fascicularis, microsome.
A further data set deals with Cytochrome P450 3A4 (Homo sapiens, UniProt P08684). As to the kind of experiment: Binding affinity to recombinant human CYP3A4 expressed in microsomes at 1 uM after 3 to 60 mins in presence of NADPH by HPLC-MS analysis. The format is ADME.
Data set [6] can be described thus: Oral bioavailability in cynomolgus monkey at 5 mg/kg administered via gavage by LC-MS/MS analysis. To be noted: in vivo. The class given is ADME, organism-based, Macaca fascicularis.
Data set [7] can be described thus: Drug recovery in Beagle dog at 1 mg/kg, iv or po via gavage measured up to 24 hrs by LC-MS/MS analysis. The class given is ADME, organism-based, Canis lupus familiaris. To be noted: in vivo, read-out: Drug recovery.
The nature of data set [8]: Half life in Wistar-Han rat at 1 mg/kg, iv or 5 mg/kg, po via gavage by LC-MS/MS analysis. The format is ADME, organism-based. To be noted: in vivo.
Data set [9] is filed under the species Homo sapiens. The data set is described as follows: Selectivity ratio of IC50 for PDE5A1 (unknown origin) to IC50 for human PDE2A1.
Data set [10] concerns Rattus norvegicus. As to the kind of experiment: Volume of distribution at steady state in Wistar-Han rat at 1 mg/kg, iv or 5 mg/kg, po via gavage by LC-MS/MS analysis. The class given is ADME, organism-based. To be noted: in vivo.
Data set [11] concerns Rattus norvegicus. The data set is described as follows: Oral bioavailability in Wistar-Han rat at 5 mg/kg administered via gavage by LC-MS/MS analysis. The class given is ADME, organism-based. To be noted: in vivo.
In data set [12] the target is cGMP-specific 3',5'-cyclic phosphodiesterase (Homo sapiens, UniProt O76074). As to the kind of experiment: Inhibition of PDE5A1 (unknown origin) using 3',5'-[3H]cGMP as substrate measured after 30 mins by Yttrium silicate scintillation proximity assay.
Data set [13] deals with Cynomolgus monkey. As to the kind of experiment: Volume of distribution at steady state in cynomolgus monkey at 1 mg/kg, iv or po via gavage by LC-MS/MS analysis. The format is ADME, organism-based, Macaca fascicularis. To be noted: in vivo.
Data set [14] in a line: Drug recovery in Wistar-Han rat at 1 mg/kg, iv or 5 mg/kg, po via gavage measured up to 24 hrs by LC-MS/MS analysis. To be noted: in vivo, read-out: Drug recovery. The format is ADME, organism-based.
The species named for data set [15] is Homo sapiens. As to the kind of experiment: Inhibition of sodium channel site 2 (unknown origin) at 10 uM relative to control.
Data set [16] can be described thus: Drug recovery in cynomolgus monkey at 1 mg/kg, iv or po via gavage measured up to 24 hrs by LC-MS/MS analysis. The class given is ADME, organism-based, Macaca fascicularis. To be noted: in vivo, read-out: Drug recovery.
Data set [17] in a line: Oral bioavailability in Beagle dog at 5 mg/kg administered via gavage by LC-MS/MS analysis. The format is ADME, organism-based, Canis lupus familiaris. To be noted: in vivo.
Another data set has as its system Cavia porcellus. The data set is described as follows: Inhibition of histamine-mediated increase in vascular permeability in guinea pig assessed as reduction in extravasation of Evan's blue dye-labeled albumin from blood to skin at 0.3 to 10 mg/kg, sc measured after 30 mins by spectrophotometric method. The class given is functional, organism-based.
Data set [18] has as its system Canis familiaris. As to the kind of experiment: Half life in Beagle dog at 1 mg/kg, iv or po via gavage by LC-MS/MS analysis. To be noted: in vivo. The class given is ADME, organism-based, Canis lupus familiaris.
The test system of data set [19] is Canis familiaris. As to the kind of experiment: Volume of distribution at steady state in Beagle dog at 1 mg/kg, iv or po via gavage by LC-MS/MS analysis. The class given is ADME, organism-based, Canis lupus familiaris. To be noted: in vivo.
Data set [20] deals with Cynomolgus monkey. The data set is described as follows: Half life in cynomolgus monkey at 1 mg/kg, iv or po via gavage by LC-MS/MS analysis. The class given is ADME, organism-based, Macaca fascicularis. To be noted: in vivo.

Chain of cGMP-dependent 3',5'-cyclic phosphodiesterase (O00408 whole entry): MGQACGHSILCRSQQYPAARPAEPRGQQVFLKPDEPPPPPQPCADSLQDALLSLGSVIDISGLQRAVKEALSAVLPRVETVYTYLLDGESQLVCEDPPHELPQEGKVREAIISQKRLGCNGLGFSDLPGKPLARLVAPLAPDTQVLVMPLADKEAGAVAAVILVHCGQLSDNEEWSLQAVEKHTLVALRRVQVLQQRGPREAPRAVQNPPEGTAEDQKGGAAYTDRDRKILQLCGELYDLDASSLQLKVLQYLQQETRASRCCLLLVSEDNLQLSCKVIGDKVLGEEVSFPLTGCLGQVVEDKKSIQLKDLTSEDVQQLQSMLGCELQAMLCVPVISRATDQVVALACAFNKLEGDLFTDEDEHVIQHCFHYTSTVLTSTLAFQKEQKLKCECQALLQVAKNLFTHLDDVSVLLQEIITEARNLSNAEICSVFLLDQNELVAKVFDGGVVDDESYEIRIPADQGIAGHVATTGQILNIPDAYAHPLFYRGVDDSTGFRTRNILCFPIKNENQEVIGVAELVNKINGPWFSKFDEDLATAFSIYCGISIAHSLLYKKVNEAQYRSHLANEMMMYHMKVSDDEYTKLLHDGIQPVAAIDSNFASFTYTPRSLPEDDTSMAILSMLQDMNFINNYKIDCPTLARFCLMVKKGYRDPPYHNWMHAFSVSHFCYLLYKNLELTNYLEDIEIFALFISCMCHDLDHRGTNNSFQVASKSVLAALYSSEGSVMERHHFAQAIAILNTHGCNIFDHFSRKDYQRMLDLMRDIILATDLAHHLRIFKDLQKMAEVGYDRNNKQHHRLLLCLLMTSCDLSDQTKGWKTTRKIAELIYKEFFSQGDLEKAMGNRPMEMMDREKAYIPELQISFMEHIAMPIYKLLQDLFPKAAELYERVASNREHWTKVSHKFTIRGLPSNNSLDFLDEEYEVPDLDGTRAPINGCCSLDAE
Chain of Cytochrome P450 3A4 (P08684 whole entry): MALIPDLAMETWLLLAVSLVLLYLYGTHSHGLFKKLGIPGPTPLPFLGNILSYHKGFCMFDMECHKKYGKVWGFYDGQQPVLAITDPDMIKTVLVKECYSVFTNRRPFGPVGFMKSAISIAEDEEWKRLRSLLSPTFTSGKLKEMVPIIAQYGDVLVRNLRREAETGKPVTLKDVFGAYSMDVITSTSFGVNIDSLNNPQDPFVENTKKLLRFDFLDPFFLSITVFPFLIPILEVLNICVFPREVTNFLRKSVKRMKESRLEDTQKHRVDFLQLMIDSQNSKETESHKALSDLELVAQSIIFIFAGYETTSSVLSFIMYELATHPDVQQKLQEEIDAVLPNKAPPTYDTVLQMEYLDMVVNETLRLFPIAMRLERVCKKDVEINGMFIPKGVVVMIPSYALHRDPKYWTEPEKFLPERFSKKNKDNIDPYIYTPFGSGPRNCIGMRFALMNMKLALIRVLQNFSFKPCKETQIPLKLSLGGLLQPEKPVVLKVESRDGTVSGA

For `Cc1nn2c(-c3c(CO)nn(C)c3-c3ccc(C(F)(F)F)cc3)nc(CO)c2c(=O)[nH]1`, the apparent permeability (Papp) in [1] worked out at 5 ×10⁻⁶ cm/s.

In [2], `Cc1nn2c(-c3c(CO)nn(C)c3-c3ccc(C(F)(F)F)cc3)nc(C)c2c(=O)[nH]1` came in with an IC50 of 6.9 nM. In data set [1], the Papp is 17 ×10⁻⁶ cm/s.

As to `Cc1nn2c(-c3c(C)nn(C)c3-c3ccc(C(F)(F)F)cc3)nc(C)c2c(=O)[nH]1`, the Drug metabolism entry in [3], in data set [4] and in data set [5] was “Metabolite_Detected” each time. Also, the half-maximal inhibitory concentration (IC50) in data set [2] came to 0.6 nM. In addition, the outcome at Cytochrome P450 3A4 was Active.

Consider `Cc1nn2c(-c3c(C)nn(C)c3-c3ccc(C(F)(F)F)cc3)nc(CO)c2c(=O)[nH]1`, for which the bioavailability was found to be 61% in data set [6] and 79% in [17]. For the same molecule, the dose excreted at 24 h in data set [7] is 48%; in data set [14] it was 22%; in data set [16], 26%. This molecule showed a half-life in data set [8] of 1.2 h. The Ratio IC50 in the data set filed under Homo sapiens [9] is 1000. Further, the Vdss with Rattus norvegicus [10] came to 1.5 L/kg; in the data set with Cynomolgus monkey [13] it was 0.8 L/kg; in the data set on Canis familiaris [19] it was 0.4 L/kg. The F in the data set on Rattus norvegicus [11] is reported as 50%. Besides, the half-maximal inhibitory concentration (IC50) amounted to 2440 nM in data set [12] and 0.4 nM in data set [2]. This molecule had an inhibition in the data set filed under Homo sapiens [15] of 17%. For the same molecule, the Papp in [1] turned out to be 8 ×10⁻⁶ cm/s. Further, the inhibition entry in the data set with Cavia porcellus is “Active”. The figures for the t1/2 in the data set on Canis familiaris [18] and with Cynomolgus monkey [20] were 4.8 h and 3.6 h, respectively.
